From PubChem BioAssay (NCI)
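48-hour exposure; five concentrations; linearly interpolated endpoints. GI50 marks 50% less growth. Definition used: TGI = concentration required for complete inhibition of growth.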

What was measured:
Assay in all cases: NCI-60 cell line screen, 48 h
[1] = test system: 786-0 renal
[2] = test system: A498 renal
[3] = test system: A549 NSCLC
[4] = test system: ACHN renal
[5] = test system: BT-549 breast
[6] = test system: CAKI-1 renal
[7] = test system: CCRF-CEM leukemia
[8] = test system: COLO 205 colon
[9] = test system: DU-145 prostate
[10] = test system: EKVX NSCLC
[11] = test system: HCC-2998 colon
[12] = test system: HCT-116 colon
[13] = test system: HCT-15 colon
[14] = test system: HL-60(TB) leukemia
[15] = test system: HOP-62 NSCLC
[16] = test system: HOP-92 NSCLC
[17] = test system: HS 578T breast
[18] = test system: HT29 colon
[19] = test system: IGROV1 ovarian
[20] = test system: K-562 leukemia
[21] = test system: KM12 colon
[22] = test system: LOX IMVI melanoma
[23] = test system: M14 melanoma
[24] = test system: MALME-3M melanoma
[25] = test system: MCF7 breast
[26] = test system: MDA-MB-231 breast
[27] = test system: MDA-MB-435
[28] = test system: MDA-MB-468 breast
[29] = test system: MOLT-4 leukemia
[30] = test system: NCI-H226 lung
[31] = test system: NCI-H23 lung
[32] = test system: NCI-H460 lung
[33] = test system: NCI-H522 lung
[34] = test system: NCI/ADR-RES ovarian
[35] = test system: OVCAR-3 ovarian
[36] = test system: OVCAR-4 ovarian
[37] = test system: OVCAR-5 ovarian
[38] = test system: OVCAR-8 ovarian
[39] = test system: PC-3 prostate
[40] = test system: RPMI-8226 leukemia
[41] = test system: RXF 393 renal
[42] = test system: SF-268 CNS
[43] = test system: SF-295 CNS
[44] = test system: SF-539 CNS
[45] = test system: SK-MEL-2 melanoma
[46] = test system: SK-MEL-28 melanoma
[47] = test system: SK-MEL-5 melanoma
[48] = test system: SK-OV-3 ovarian
[49] = test system: SN12C renal
[50] = test system: SNB-19 CNS
[51] = test system: SNB-75 CNS
[52] = test system: SR leukemia
[53] = test system: SW-620 colon
[54] = test system: T-47D breast
[55] = test system: TK-10 renal
[56] = test system: U251 CNS
[57] = test system: UACC-257 melanoma
[58] = test system: UACC-62 melanoma
[59] = test system: UO-31 renal

Structure (SMILES): C#C[C@]1(O)CC[C@H]2[C@@H]3CC=C4c5sc(Nc6ccc(N(C)C)cc6)nc5CC[C@]4(C)[C@H]3CC[C@@]21C
- GI50 [1]: 0.647 µM
- TGI [1]: 5.34 µM
- GI50 [2]: 1.88 µM
- TGI [2]: 4.18 µM
- GI50 [3]: 2.5 µM
- TGI [3]: 12.5 µM
- GI50 [4]: 2.24 µM
- TGI [4]: 10.8 µM
- GI50 [5]: 0.642 µM
- TGI [5]: 3.07 µM
- GI50 [6]: 1.74 µM
- TGI [6]: > 23.6 µM
- GI50 [7]: 0.812 µM
- TGI [7]: > 86.6 µM
- GI50 [8]: 2.62 µM
- TGI [8]: 6.82 µM
- GI50 [9]: 2.55 µM
- TGI [9]: 10.8 µM
- GI50 [10]: 1.59 µM
- TGI [10]: 6.49 µM
- GI50 [11]: 3.23 µM
- TGI [11]: 7.82 µM
- GI50 [12]: 1.01 µM
- TGI [12]: 3.93 µM
- GI50 [13]: 0.791 µM
- TGI [13]: 2.67 µM
- GI50 [14]: 2.4 µM
- TGI [14]: 12.3 µM
- GI50 [15]: 1.89 µM
- TGI [15]: 7.38 µM
- GI50 [16]: 2.65 µM
- TGI [16]: 17.8 µM
- GI50 [17]: 0.417 µM
- TGI [17]: 3.98 µM
- GI50 [18]: 1.66 µM
- TGI [18]: 4.3 µM
- GI50 [19]: 3.22 µM
- TGI [19]: 10.1 µM
- GI50 [20]: 1.86 µM
- TGI [20]: 15.8 µM
- GI50 [21]: 2.15 µM
- TGI [21]: 7.11 µM
- GI50 [22]: 0.923 µM
- TGI [22]: 2.41 µM
- GI50 [23]: 1.04 µM
- TGI [23]: 4.51 µM
- GI50 [24]: 0.858 µM
- TGI [24]: 2.9 µM
- GI50 [25]: 0.948 µM
- TGI [25]: 4.21 µM
- GI50 [26]: 1.27 µM
- TGI [26]: 3.33 µM
- GI50 [27]: 1.66 µM
- TGI [27]: 7.37 µM
- GI50 [28]: 1.51 µM
- TGI [28]: 4.36 µM
- GI50 [29]: 0.374 µM
- TGI [29]: 5.53 µM
- GI50 [30]: 2.41 µM
- TGI [30]: 10.9 µM
- GI50 [31]: 1.33 µM
- TGI [31]: 5.14 µM
- GI50 [32]: 1.44 µM
- TGI [32]: 5.61 µM
- GI50 [33]: 1.49 µM
- TGI [33]: 3.25 µM
- GI50 [34]: 2.54 µM
- TGI [34]: 10.7 µM
- GI50 [35]: 2.3 µM
- TGI [35]: 7.19 µM
- GI50 [36]: 2.54 µM
- GI50 [37]: 2.41 µM
- TGI [37]: 8.22 µM
- GI50 [38]: 2.99 µM
- TGI [38]: 11 µM
- GI50 [39]: 0.999 µM
- TGI [39]: 9.29 µM
- GI50 [40]: 0.248 µM
- TGI [40]: 2.2 µM
- GI50 [41]: 0.19 µM
- TGI [41]: 0.715 µM
- GI50 [42]: 1.87 µM
- TGI [42]: 10.6 µM
- GI50 [43]: 0.225 µM
- TGI [43]: 0.557 µM
- GI50 [44]: 0.284 µM
- TGI [44]: 1.25 µM
- GI50 [45]: 1.46 µM
- TGI [45]: 4.32 µM
- GI50 [46]: 0.651 µM
- TGI [46]: 1.88 µM
- GI50 [47]: 1.49 µM
- TGI [47]: 2.92 µM
- GI50 [48]: 1.35 µM
- TGI [48]: 3.69 µM
- GI50 [49]: 2.63 µM
- TGI [49]: 7.84 µM
- GI50 [50]: 1.49 µM
- TGI [50]: 6.01 µM
- GI50 [51]: 1.29 µM
- TGI [51]: 6.32 µM
- GI50 [52]: 0.567 µM
- TGI [52]: 20.1 µM
- GI50 [53]: 1.1 µM
- TGI [53]: 3.47 µM
- GI50 [54]: 2.64 µM
- TGI [54]: 15.1 µM
- GI50 [55]: 7.56 µM
- TGI [55]: 33.3 µM
- GI50 [56]: 0.735 µM
- TGI [56]: 4.44 µM
- GI50 [57]: 2.01 µM
- TGI [57]: 6.69 µM
- GI50 [58]: 1.27 µM
- TGI [58]: 3.01 µM
- GI50 [59]: 1.5 µM
- TGI [59]: 5.21 µM
